Measurements reported in ChEMBL document CHEMBL1201862, “PubChem BioAssay data set” (2004).
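Dose response: 5 concentrations. Exposure: 48 h. Format: 96-well plates. Endpoint: linear interpolation; highest concentration if not reached. Here, GI50 denotes the concentration required for 50% inhibition of growth.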 Calls of active or inactive are those of the source. No stated cut-off is given here; in the data, active = GI50 up to about 1.1 µM and inactive = higher.

How the values were obtained:
Test in all cases: NCI anticancer screen, dose series, 48 h
786-0 = tested on: 786-0
UACC-62 = tested on: UACC-62
SF-539 = tested on: SF-539
EKVX = tested on: EKVX
MDA-MB-231 = tested on: MDA-MB-231
HCT-15 = tested on: HCT-15
U-251 = tested on: U-251
M14 = tested on: M14
SK-OV-3 = tested on: SK-OV-3
K562 = tested on: K562
SK-MEL-28 = tested on: SK-MEL-28
SR = tested on: SR
OVCAR-8 = tested on: OVCAR-8
SK-MEL-2 = tested on: SK-MEL-2
KM12 = tested on: KM12
A498 = tested on: A498
MDA-N = tested on: MDA-N
CCRF-CEM = tested on: CCRF-CEM
SNB-75 = tested on: SNB-75
HOP-92 = tested on: HOP-92

SMILES	GI50 (786-0)	GI50 (UACC-62)	GI50 (SF-539)	GI50 (EKVX)	GI50 (MDA-MB-231)	GI50 (HCT-15)	GI50 (U-251)	GI50 (M14)	GI50 (SK-OV-3)	GI50 (K562)	GI50 (SK-MEL-28)	GI50 (SR)	GI50 (OVCAR-8)	GI50 (SK-MEL-2)	GI50 (KM12)	GI50 (A498)	GI50 (MDA-N)	GI50 (CCRF-CEM)	GI50 (SNB-75)	GI50 (HOP-92)
CC(C)OC(=O)/C=C/C(=O)O/C=C/[N+](=O)[O-]	29.2 µM (inactive)	21.3 µM (inactive)	37.1 µM (inactive)	18.2 µM (inactive)	36.5 µM (inactive)	35 µM	21.7 µM (inactive)	30 µM (inactive)	66.8 µM (inactive)	7.64 µM (inactive)	26.7 µM (inactive)	24.4 µM (inactive)	15.7 µM (inactive)	20.2 µM (inactive)	21.5 µM (inactive)	14.1 µM (inactive)				
COc1cc(/C=C/C(=O)CC(=O)/C=C/c2ccc(OC(=O)CCCCC3CCSS3)c(OC)c2)ccc1OC(=O)CCCCC1CCSS1 (stereo not given)	> 100 µM (inactive)	> 100 µM (inactive)	> 100 µM (inactive)	> 100 µM (inactive)	> 100 µM (inactive)	> 100 µM	> 100 µM (inactive)	> 100 µM (inactive)	> 100 µM (inactive)	> 100 µM (inactive)	> 100 µM (inactive)		> 100 µM (inactive)	> 100 µM (inactive)	> 100 µM (inactive)		> 100 µM (inactive)	> 100 µM (inactive)	> 100 µM (inactive)	
C=Cc1nc2nnc(CCCCCCCCc3nnc4nc(C=C)[nH]n34)n2[nH]1	80.9 µM (inactive)		> 100 µM (inactive)	61.5 µM (inactive)	95.5 µM (inactive)	> 100 µM	30.7 µM (inactive)	> 100 µM (inactive)	> 100 µM (inactive)	21.6 µM (inactive)	> 100 µM (inactive)		83.8 µM (inactive)	> 100 µM (inactive)	> 100 µM (inactive)	40.7 µM (inactive)	> 100 µM (inactive)	> 100 µM (inactive)	> 100 µM (inactive)	
Oc1[nH]c(Nc2ccc(Cl)cc2)nc2ncnc1-2	> 100 µM (inactive)	> 100 µM (inactive)	> 100 µM (inactive)	> 100 µM (inactive)	88.3 µM (inactive)	> 100 µM	> 100 µM (inactive)	89.1 µM (inactive)	> 100 µM (inactive)		> 100 µM (inactive)	44.9 µM (inactive)	> 100 µM (inactive)	> 100 µM (inactive)	> 100 µM (inactive)	> 100 µM (inactive)			43.4 µM (inactive)	81.3 µM (inactive)
CCc1cc(Cc2cc(CC)c(NC(=O)C3=CC(=O)CC(c4ccc(OC)cc4)O3)c(CC)c2Cl)c(Cl)c(CC)c1NC(=O)C1=CC(=O)CC(c2ccc(OC)cc2)O1 (stereo not given)	18.4 µM (inactive)	23.8 µM (inactive)	20.2 µM (inactive)	30.5 µM (inactive)		25.6 µM	12.9 µM (inactive)	17 µM (inactive)	17 µM (inactive)	32.1 µM (inactive)	23.3 µM (inactive)	22.5 µM (inactive)	26.5 µM (inactive)	17.3 µM (inactive)	10.5 µM (inactive)	21.7 µM (inactive)		28.1 µM (inactive)	20 µM (inactive)	20.8 µM (inactive)
COc1cc(/C=N/NC(=O)c2ccc(NC(C)=O)cc2OC)ccc1O	> 100 µM (inactive)	61.9 µM (inactive)	39.2 µM (inactive)	77.6 µM (inactive)		76.6 µM		> 100 µM (inactive)	> 100 µM (inactive)	> 100 µM (inactive)	> 100 µM (inactive)	> 100 µM (inactive)	> 100 µM (inactive)	26.9 µM (inactive)	> 100 µM (inactive)	86.3 µM (inactive)	> 100 µM (inactive)	> 100 µM (inactive)	26.7 µM (inactive)	22.6 µM (inactive)
O=C(CCc1ccccc1)ON1C(=S)C(c2ccccc2)(c2ccccc2)N=C1Sc1ccccc1	26.5 µM (inactive)	55.1 µM (inactive)	44.6 µM (inactive)	26.6 µM (inactive)	> 100 µM (inactive)	24.9 µM		82.6 µM (inactive)	45.1 µM (inactive)	36.1 µM (inactive)			38.7 µM (inactive)	29.8 µM (inactive)	32.6 µM (inactive)	> 100 µM (inactive)		20.3 µM (inactive)	37.9 µM (inactive)	> 100 µM (inactive)
CC(C)[Si](OC1=C(C(=O)N(C)c2ccccc2Cl)CCC1)(C(C)C)C(C)C	21.7 µM (inactive)		22.9 µM (inactive)	16.9 µM (inactive)	16 µM (inactive)	16.5 µM	16 µM (inactive)	19 µM (inactive)	16.5 µM (inactive)		21.5 µM (inactive)		17 µM (inactive)		20.6 µM (inactive)	15.6 µM (inactive)	19.8 µM (inactive)		13.3 µM (inactive)	18.3 µM (inactive)
CCOC(=O)c1c(N2CCCC2)ncn(C)c1=S	> 100 µM (inactive)	> 100 µM (inactive)	> 100 µM (inactive)	> 100 µM (inactive)	> 100 µM (inactive)	> 100 µM	> 100 µM (inactive)	> 100 µM (inactive)		> 100 µM (inactive)	> 100 µM (inactive)	> 100 µM (inactive)	> 100 µM (inactive)	> 100 µM (inactive)	> 100 µM (inactive)	> 100 µM (inactive)		> 100 µM (inactive)		93.3 µM (inactive)
Cc1ccccc1NC(=O)C(=O)C(c1cnc2ccc([N+](=O)[O-])cc2n1)[N+](=O)[O-] (stereo not given)	> 100 µM (inactive)	51.5 µM (inactive)	> 100 µM (inactive)	> 100 µM (inactive)		> 100 µM	> 100 µM (inactive)	> 100 µM (inactive)	> 100 µM (inactive)	39.1 µM (inactive)	> 100 µM (inactive)	> 100 µM (inactive)	> 100 µM (inactive)	> 100 µM (inactive)	> 100 µM (inactive)	> 100 µM (inactive)		25.5 µM (inactive)	> 100 µM (inactive)	> 100 µM (inactive)
O=c1cc(CC(O)(C(F)(F)Cl)C(F)(F)Cl)[nH]n1-c1ccccc1	> 100 µM (inactive)	> 100 µM (inactive)	> 100 µM (inactive)	> 100 µM (inactive)	> 100 µM (inactive)	> 100 µM	> 100 µM (inactive)	> 100 µM (inactive)	> 100 µM (inactive)	92.3 µM (inactive)	> 100 µM (inactive)	> 100 µM (inactive)	> 100 µM (inactive)		> 100 µM (inactive)	> 100 µM (inactive)		> 100 µM (inactive)	> 100 µM (inactive)	20.7 µM (inactive)
Cc1cc(Cc2cc(C)c(N)cc2N)c(N)cc1N	> 100 µM (inactive)	> 100 µM (inactive)	80.2 µM (inactive)	> 100 µM (inactive)	> 100 µM (inactive)	> 100 µM	> 100 µM (inactive)	> 100 µM (inactive)	> 100 µM (inactive)	> 100 µM (inactive)	> 100 µM (inactive)		94.4 µM (inactive)	> 100 µM (inactive)	85.5 µM (inactive)	> 100 µM (inactive)	> 100 µM (inactive)		> 100 µM (inactive)	
COc1ccc(-n2c(N)c(C#N)c(C#N)c2-c2cccc([N+](=O)[O-])c2)cc1	33.9 µM (inactive)	17.5 µM (inactive)	32.4 µM (inactive)	26 µM (inactive)	67 µM (inactive)	> 100 µM	38.8 µM (inactive)	> 100 µM (inactive)	43.7 µM (inactive)	> 100 µM (inactive)		18.7 µM (inactive)	88.9 µM (inactive)	1.77 µM (inactive)	62.5 µM (inactive)	> 100 µM (inactive)		5.31 µM (inactive)	2.96 µM (inactive)	15.3 µM (inactive)
O=C(O)c1ccccc1-c1ccccc1C(=O)Nc1ccc2c(c1)nc(O)c1ccccc12	> 100 µM (inactive)	59.6 µM (inactive)	94.2 µM (inactive)	> 100 µM (inactive)	88.9 µM (inactive)	> 100 µM	51.9 µM (inactive)	> 100 µM (inactive)	> 100 µM (inactive)	39.6 µM (inactive)	> 100 µM (inactive)		> 100 µM (inactive)	87.9 µM (inactive)	> 100 µM (inactive)	34.3 µM (inactive)		62.8 µM (inactive)	93.3 µM (inactive)	> 100 µM (inactive)
CC(C)=CCN1c2ccccc2NC(=O)CC1C (stereo not given)	> 100 µM (inactive)		> 100 µM (inactive)	51.3 µM (inactive)	> 100 µM (inactive)	> 100 µM	> 100 µM (inactive)	> 100 µM (inactive)	> 100 µM (inactive)	> 100 µM (inactive)	> 100 µM (inactive)	56.5 µM (inactive)	> 100 µM (inactive)	> 100 µM (inactive)	> 100 µM (inactive)	83.8 µM (inactive)		> 100 µM (inactive)		38.7 µM (inactive)
CS(=O)(=O)CSCSSCS(C)(=O)=O	20.1 µM (inactive)	20.7 µM (inactive)	22 µM (inactive)	> 100 µM (inactive)		28 µM	37.1 µM (inactive)	19.2 µM (inactive)	> 100 µM (inactive)	23.8 µM (inactive)	24.6 µM (inactive)	16.5 µM (inactive)	30.2 µM (inactive)	21.2 µM (inactive)	44.2 µM (inactive)	88.9 µM (inactive)		22.2 µM (inactive)	> 63.4 µM (inactive)	27.7 µM (inactive)
